One may read the IC50 as the point on the concentration scale where inhibition reaches its midpoint.

In data set [1] the test system is neuroblastoma SH-SY5Y cell line. Also noted: method as in doi:10.1016/j.crci.2013.07.003. Conditions: read-out: Calcium antagonistic properties, IC50, SH-SY5Y; cited from earlier work.
The subject of data set [2] is DPPC (1,2-dipalmitoyl-sn-glycero-3-phosphocholine) vesicles with DPH probe. The experiment in a line: Phospholipid binding assay (quenching of DPH fluorescence). Conditions: DPPC 2 × 10^−5 M, DPH 5 × 10^−6 M, 1,4-DHP 5 × 10^−5 M. The method, then: Binding studies of the 4-(N-alkylpyridinium)-1,4-DHP derivatives 1–11 with phospholipid were carried out in Tris-buffered saline (TBS) buffer (10 mM of Tris, 150 mM of NaCl, pH 7.4) by a fluorescence probe technique using a modified protocol described by Ma et al.. Briefly, 1,2-dipalmitoyl-sn-glycero-3-phosphocholine (DPPC) vesicles dispersed in TBS buffer were prepared by sonication of the lipid solution using a probe sonifier for 30 min. The concentration of DPPC stock solution was 6 × 10^−5 M; the concentration of the stock solutions of the 4-(N-alkylpyridinium)-1,4-DHP derivatives were 1.5 × 10^−4 M.
To characterise the hydrophobic interaction between the 1,4-DHP and phospholipids, 1,6-diphenyl-1,3,5-hexatriene (DPH) was used as a fluorescence probe. […]
Mixtures containing 40 µL of DPPC stock solution (6 × 10^−5 M) and 40 µL of DPH diluted stock solution (15 × 10^−6 M) were incubated at 50 °C for 0.5 h in the dark; then, an aliquot of 4-(N-alkylpyridinium)-1,4-DHP derivatives was added with the following incubation at 50 °C for 0.5 h in the dark, after which samples were cooled to room temperature and the fluorescence intensity was measured by a Tecan multiplate reader Infinite1000 (Tecan Austria GmbH, Salzburg, Austria). […]

Data set [3] concerns vascular smooth muscle A7R5 cell line. The arrangement: method as in doi:10.1016/j.crci.2013.07.003. To be noted: read-out: Calcium antagonistic properties, IC50, A7R5; cited from earlier work.
Data set [4] deals with transgenic Alzheimer's disease female mice. Also noted: method as in PMID 27345857. To be noted: cited from earlier work.
On the set-up of data set [5]: method as in PMID 26042808. Conditions: cited from earlier work.
Data set [6] has as its system NIH 3T3 (Mouse Swiss Albino embryo fibroblast) cells. The experiment in a line: Basal cytotoxicity test (neutral red uptake) with estimation of LD50 from IC50. In kind it is cell-based. To be noted: category by estimated LD50 (mg/kg). How it is done: The neutral red uptake (NRU) assay was performed according to the standard protocol of Stokes modified by NICEATM-ECVAM validation study. The NRU cytotoxicity assay procedure was based on the ability of viable cells to incorporate and bind neutral red, which is a supravital dye.
NIH 3T3 (Mouse Swiss Albino embryo fibroblast) cells (9000 cells/well) were placed into 96-well plates for 24 h in DMEM medium containing 5% fetal bovine serum (FBS). Then, they were exposed to the test compound over a range of seven concentrations (1000 μg/mL, 316 μg/mL, 100 μg/mL, 31 μg/mL, 10 μg/mL, 3.0 μg/mL, and 1.0 μg/mL) for 24 h. Untreated cells were used as a control. After 24 h, the medium was removed from all plates. Then, 250 μL of neutral red (NR) solution was added (0.05 mg/mL NR in DMEM 24 h pre-incubated at 37 °C and then filtered before use through a 0.22-µm syringe filter). Plates were incubated for 3 h, and then, cells were washed three times with phosphate buffered saline (PBS). The dye within viable cells was released by extraction with a mixture of acetic acid, ethanol, and water (1:50:49). The absorbance of neutral red was measured using a spectrophotometer multiplate reader Infinite M1000 (Tecan Austria GmbH, Salzburg, Austria) at 540 nm. The optical density (OD) was calculated using the formula: OD (treated cells) × 100/OD (control cells). The IC50 values were calculated using the program Graph Pad Prism® 3.0.
Data from the in vitro tests were used for estimating the starting dose for acute oral systemic toxicity tests in rodent. The in vivo starting dose is an estimated LD50 value that is calculated by inserting the in vitro IC50 value into a regression formula: log LD50 (mM/kg) = 0.439 log IC50 (mM) + 0.621 [29]. The value is recalculated to mg/kg, and compounds are evaluated in accordance with four toxicity categories: category 1: LD50 ≤ 5 mg/kg (highly toxic); category 2: 5 < LD50 ≤ 50 mg/kg (moderately toxic); category 3: 50 < LD50 ≤ 300 mg/kg (slightly toxic); category 4: 300 < LD50 ≤ 2000 mg/kg (practically non-toxic). Using an alternative in vitro method enables comparing the possible toxicity of new compounds and selecting compounds for further study, which will vastly reduce the number of animal experiments.

The test system of data set [7] is HT-1080 (human connective tissue fibrosarcoma) cells. The experiment in a line: MTT cytotoxicity assay on HT-1080 tumor cells, 72 h. In kind it is cell-based. Conditions: MTT, 72 h; ne = no effect in the tested concentration (up to 100 μg/mL). Background: Tetrazolium assays rely on reduction of a dye to a coloured formazan, in cell work by metabolically active cells.

Molecules are shown by their SMILES.

Take `CCCCCCCCCCCC[n+]1cccc(C2C(C(=O)OCC)=C(C)NC(C)=C2C(=O)OCC)c1` [Compound 3]: the half-inhibitory concentration (IC50) in data set [1] is 5000 to 14000 nM; in data set [3], 600 to 700 nM. Moreover, in data set [2], the “Quenching of the fluorescence of the DPH-DPPC system” value is reported as “lowest relative fluorescence intensity”. Further, the Memory-improving anxiolytic effects entry in data set [4] is given as “memory-improving anxiolytic effects”. Besides, in data set [5], the “Blood–brain barrier crossing” value is “crossed the blood–brain barrier”. For the same compound, the “Toxicity category from estimated LD50” value in data set [6] is “non-toxic”.

On to `C#CCN1C(C)=C(C(=O)OCC)C(c2ccc[n+](CCCCCCCCCCCC)c2)C(C(=O)OCC)=C1C` [Compound 6], for which the IC50 in data set [1] is 5000 to 14000 nM; in data set [3], 600 to 700 nM.

As to `C#CCOC(=O)C1=C(C)NC(C)=C(C(=O)OCC#C)C1c1ccc[n+](CC)c1` [Compound 7], the “Cytotoxicity IC50, HT-1080” value in data set [7] is “did not demonstrate any cytotoxic effect and ne”.

Regarding `C#CCOC(=O)C1=C(C)NC(C)=C(C(=O)OCC#C)C1c1ccc[n+](CCCCCCCCCCCC)c1` [Compound 9], the half-maximal inhibitory concentration (IC50) in data set [7] was determined as 2000 ± 200 nM.

The values above are taken from paper PMC6470589, “Contribution of Molecular Structure to Self-Assembling and Biological Properties of Bifunctional Lipid-Like 4-(N-Alkylpyridinium)-1,4-Dihydropyridines” (Pharmaceutics, 2019).
